Measured values: patent US7339063B2, “Quinolyl organic germanium ester and the synthesis method thereof” (Changchun Institute of Applied Chemistry Chinese Academy of …, priority 2004, dated 2008)
Read-outs that look alike come from different tables or passages of the source. Marks after values point to notes of the source that are not given here.

System: PC-3M prostate cancer cell line
Settings: for inhibition fraction at the given concentration: PC-3M proliferation
From the text: Cytotoxicity of Quinolyl Germanyl Propionate Sesquioxide (a) and Quinolyl Germanyl-α-methyl Propionate Sesquioxide (b) Against PC-3M Prostate Cancer Cell Line
The only difference of these two compounds is with or without the methyl group in the linking chain of the Germanium and quinoline.

Substance | inhibition fraction at the given concentration (10 μM, 24 h) | inhibition fraction at the given concentration (10 μM, 48 h) | inhibition fraction at the given concentration (10 μM, 72 h) | inhibition fraction at the given concentration (30 μM, 24 h) | inhibition fraction at the given concentration (30 μM, 48 h) | inhibition fraction at the given concentration (30 μM, 72 h) | inhibition fraction at the given concentration (60 μM, 24 h) | inhibition fraction at the given concentration (60 μM, 48 h) | inhibition fraction at the given concentration (60 μM, 72 h) | IC50 relative to that of Compound (b) (PC-3M, MTT method) | IC50 (PC-3M, measured by MTT method) [µM]
Quinolyl Germanyl Propionate Sesquioxide [Compound (a)] | 0.34** | 0.69 | 0.62 | 0.48 | 0.74 | 0.74 | 0.50 | 0.74 | 0.78 | three fold lower | 10
Quinolyl Germanyl-α-methyl Propionate Sesquioxide [Compound (b)] | 0.09 | 0.32 | 0.58 | 0.30 | 0.45 | 0.69 | 0.20 | 0.43 | 0.67 |  | 
